Experimental data as given in paper PMC6973020, “Quinoline‐Conjugated Ruthenacarboranes: Toward Hybrid Drugs with a Dual Mode of Action” (Chemmedchem, 2019).

Experiments:
[1] = system: A375 human skin melanoma; assay: MTT cell viability assay, A375; assay type: cell-based; conditions: 72 h
Text: (§1) Thus, care must be taken when comparing their biological activities with those of our previous studies, even with the same cell line, because the covalent vs. non‐covalent combination of drugs might imply different mechanisms of action in the cell.44 Here, we studied the in vitro activity of ruthenacarborane 3, i. e. free acid, and its 8‐hydroxyquinolyl (4) and 4‐{(7‐chloroquinolin‐4‐yl)oxy}butanol‐1‐yl (5) esters, against a panel of cancer cell lines (B16 mouse melanoma, A375 human skin melanoma, MCF‐7 human breast adenocarcinoma, LN229 human glioblastoma, U251 human glioma). Human fibroblast cell line MRC‐5, murine microglial cell line BV‐2 as well as peritoneal exudate cells (Mph), were chosen as models for non‐malignant cells. […] On the other side, we wanted to assess the reproducibility of the viability data, under either controlled (with BSA) or uncontrolled (without BSA) conditions, in two sets of independent assays. […] Cells were exposed to 3–5 for 72 h, after which cell viability was determined via 3‐(4,5‐dimethylthiazol‐2‐yl)‐2,5‐diphenyltetrazolium bromide (MTT) and crystal violet (CV) assays, in parallel (Table 2). Cisplatin was also tested as reference.
(§2) Preparation of drug solutions. […] Stock solution of cisplatin was prepared in DMF (10 mM) immediately before use. A stock solution of BSA in PBS was prepared at 1.28 mM concentration, and stored at 4 °C in the dark. […] Alternatively, 3 or 4 (DMSO stock solution) were added to the BSA solution in PBS, always with a 10 : 1 molar ratio of BSA to ruthenacarborane. The BSA−ruthenacarborane solutions were incubated 0.5–1 h at room temperature, then diluted with cell culture medium to the desired final concentrations. Final concentrations of 3 and 4 were the same as for the BSA‐free formulation. Final DMSO was 0.02–0.5 vol %.
(§3) Colorimetric assays for cellular viability. […] For counting the number of attached (viable) cells, cells were fixed with 4 % (w/v) paraformaldehyde for 10 min at room temperature, and subsequently stained for 15 min with […] crystal violet (CV) solution. Cells were then washed with tap water, dried in air, and the CV dye was dissolved in 33 % (w/v) acetic acid solution. For the detection of mitochondrial respiration, cells were cultivated in MTT staining solution (0.5 mg mL^−1) for approximately 1 h. The dye was then discarded, and the formed formazan (purple) was dissolved in DMSO. The absorbance was measured with an automated microplate reader at λmax 540 nm, with the reference λmax 670 nm. Untreated cells or cells treated only with BSA (control) were also measured, as reference for BSA‐free and BSA‐containing drug formulations, respectively. […] Cell viability is expressed as percentage (%) relative to control (untreated cultures).58 Experiments were run in three independent replicates. […]

[2] = system: A375 human skin melanoma; assay: Crystal violet (CV) cell viability assay, A375; assay type: cell-based; conditions: 72 h
Text: as §1, §2, §3

[3] = system: B16 mouse melanoma; assay: MTT cell viability assay, B16; assay type: cell-based; conditions: 72 h
Text: as §1, §2, §3

[4] = system: B16 mouse melanoma; assay: Crystal violet (CV) cell viability assay, B16; assay type: cell-based; conditions: 72 h
Text: as §1, §2, §3

[5] = system: MCF‐7 human breast adenocarcinoma; assay: MTT cell viability assay, MCF‐7; assay type: cell-based; conditions: 72 h
Text: as §1, §2, §3

[6] = system: MCF‐7 human breast adenocarcinoma; assay: Crystal violet (CV) cell viability assay, MCF‐7; assay type: cell-based; conditions: 72 h
Text: as §1, §2, §3

[7] = system: U251 human glioma; assay: MTT cell viability assay, U251; assay type: cell-based; conditions: 72 h
Text: as §1, §2, §3

[8] = system: U251 human glioma; assay: Crystal violet (CV) cell viability assay, U251; assay type: cell-based; conditions: read-out: IC50 U251
Text: as §1, §2
(§4) Colorimetric assays for cellular viability. […] For counting the number of attached (viable) cells, cells were fixed with 4 % (w/v) paraformaldehyde for 10 min at room temperature, and subsequently stained for 15 min with […] crystal violet (CV) solution. Cells were then washed with tap water, dried in air, and the CV dye was dissolved in 33 % (w/v) acetic acid solution. For the detection of mitochondrial respiration, cells were cultivated in MTT staining solution (0.5 mg mL^−1) for approximately 1 h. The dye was then discarded, and the formed formazan (purple) was dissolved in DMSO. The absorbance was measured with an automated microplate reader at λmax 540 nm, with the reference λmax 670 nm. Untreated cells or cells treated only with BSA (control) were also measured, as reference for BSA‐free and BSA‐containing drug formulations, respectively. For determination of the role of autophagy specific inhibitors, CQ or 3‐MA, were applied at a concentration of 20 μM and 0.5 mM, respectively, and the cells were stained with CV dye. Cell viability is expressed as percentage (%) relative to control (untreated cultures).58 Experiments were run in three independent replicates. […] Non‐linear regression analyses of the obtained results was done using GraphPad Prism software to calculate IC50 values.
(§5) mouse microglial cell line BV‐2 was a kind gift from Dr. Irena Lavrnja, Institute for Biological Research
(§6) “Siniša Stanković” (University of Belgrade).

[9] = system: LN229 human glioblastoma; assay: MTT cell viability assay, LN229; assay type: cell-based; conditions: 72 h
Text: as §1, §2, §3

[10] = system: LN229 human glioblastoma; assay: Crystal violet (CV) cell viability assay, LN229; assay type: cell-based; conditions: read-out: IC50 LN229
Text: as §1, §2, §4, §5, §6

[11] = system: murine microglial cell line BV‐2; assay: MTT cell viability assay, BV‐2; assay type: cell-based, mouse; conditions: 72 h
Text: as §1
(§7) Preparation of drug solutions. […] Stock solution of cisplatin was prepared in DMF (10 mM) immediately before use. A stock solution of BSA in PBS was prepared at 1.28 mM concentration, and stored at 4 °C in the dark. […] Alternatively, 3 or 4 (DMSO stock solution) were added to the BSA solution in PBS, always with a 10 : 1 molar ratio of BSA to ruthenacarborane. […]
(§8) Colorimetric assays for cellular viability. […] The absorbance was measured with an automated microplate reader at λmax 540 nm, with the reference λmax 670 nm. Untreated cells or cells treated only with BSA (control) were also measured, as reference for BSA‐free and BSA‐containing drug formulations, respectively. […] Cell viability is expressed as percentage (%) relative to control (untreated cultures).58 Experiments were run in three independent replicates. […]

[12] = system: murine microglial cell line BV‐2; assay: Crystal violet (CV) cell viability assay, BV‐2; assay type: cell-based, mouse; conditions: 72 h
Text: as §1, §7, §8

[13] = system: Human fibroblast cell line MRC‐5; assay: MTT cell viability assay, MRC‐5; assay type: cell-based; conditions: 72 h
Text: as §1, §7, §8

[14] = system: Human fibroblast cell line MRC‐5; assay: Crystal violet (CV) cell viability assay, MRC‐5; assay type: cell-based; conditions: 72 h
Text: as §1, §7, §8

[15] = system: primary non‐malignant mouse macrophages (Mph); assay: Crystal violet (CV) cell viability assay, peritoneal macrophages (Mph); assay type: cell-based; conditions: 72 h
Text: as §1, §7, §8

[16] = system: U251 and LN229 cell lines; assay: Cell viability assays (MTT, CV), summary for glioma and glioblastoma lines; assay type: cell-based, human; conditions: concentration range tested up to 100 μM, 72 h
Text: as §1, §7, §8

Molecule	IC50 [1]	IC50 [2]	IC50 [3]	IC50 [4]	IC50 [5]	IC50 [6]	IC50 [7]	IC50 ([8]; CV assay, 72 h)	IC50 [9]	IC50 ([10]; CV assay, 72 h)	IC50 ([8]; Homo sapiens, U-251, 72 h)	IC50 ([10]; Homo sapiens, LN-229, 72 h)	IC50 [11]	IC50 [12]	IC50 [13]	IC50 [14]	IC50 [15]	activity against LN229 and U251 (in words) [16]
N.N.[Cl][Pt][Cl] [Cisplatin, reference compound]	3.3 ± 0.4 µM	3.7 ± 0.1 µM	6 ± 0.4 µM	10.9 ± 1.2 µM	3 ± 0.5 µM	3.5 ± 0.2 µM	0.4 ± 0.1 µM	0.8 ± 0.3 µM	4.1 ± 0.4 µM	4.1 ± 0.6 µM	–	–	–	–	–	–	–	–
CCN(CC)CCCC(C)Nc1ccnc2cc(Cl)ccc12 (stereo not shown) [CQ, chloroquine, reference compound]	–	–	–	–	–	–	–	–	–	–	30 to 50 µM	30 to 50 µM	–	–	–	–	–	–
closo ‐[3‐(η^6‐p‐Cymene)‐1‐[(7‐chloroquinolin‐4‐yl)oxy]butyl acetate)‐3,1,2‐RuC2B9H10] [Compound 5]	43.4 ± 0.3 µM	> 100 µM	9.5 ± 1.8 µM	33.7 ± 2.9 µM	15.5 ± 1.5 µM	34.1 ± 0.5 µM	> 100 µM	> 100 µM	86.7 ± 3 µM	82.5 ± 7.6 µM	–	–	12.3 ± 0.1 µM	> 100 µM	> 100 µM	> 100 µM	> 100 µM	inactive
